2 molecules from patent US20140050779A1, “[…]-2 INHIBITORS AND USES THEREOF” (SINGAPORE HEALTH SERVICES PTE. LTD., priority 2011, published 2014) can be followed below.

Assay [1] relates to TG-2. Put plainly: TG-2 colorimetric microassay (transamidase activity) in lysate of treated mouse scleral fibroblasts. Particulars: for transamidase activity of endogenous cellular TG-2: mouse scleral fibroblasts, 0.1, 1, 10 and 100 μM for 5 days, concentration-dependent. In kind it is cell-based. As to the method: (§1) All cells used in examples described herein were between passages 2-4. Passaged cells were plated at a concentration of 2×10^5/mL into 6 well plates containing DMEM with 10% FBS. […] Old media was removed from wells and 1 mL of drug was added with fresh full medium and incubated at 37° C. Fresh drugs were replaced daily consecutively for the next 5 days to avoid oxidation. The drugs/media was removed and wells were washed twice with 1×PBS. 200 μl of RIPA lysis buffer was added per well and incubated for 5 minutes and cells were scrapped into an eppendorf tube. The cells were stored at −20° C. until sonication. The cells were sonicated on ice thrice at 20% output power for 5 seconds each time and rested 1 minute in between each turn. Cell debris was spun down at 12000 rpm for 20 minutes. The supernatant was poured into a new eppendorf tube and cell concentrations were determined using the Dc Protein assay Kit (Bio-Rad, MA). Passaged cells were plated at a concentration of 1×10^5 into 6 well plates containing DMEM with 10% FBS. […] Freshly prepared muscarinic agents' at base line, 0.1, 1, 10 and 100 μM concentrations were added for 5 days (Table 2). The culture medium was removed and fresh medium containing the same muscarinic drug added every day to avoid drug changes such as atropine oxidation. Cell lysate was collected for relative quantitative (q) PCR and protein analysis at day 5.
(§2) This assay was designed to assess the cross-linking activity of TG-2 between two proteins. TG activity was measured with TG-2 colorimetric Microassay kit (TG-Covtest, Covalab, Cambridge, UK). 150-200 μg of total protein was used per well for the TG-2 assay. Transglutaminase standards (Sigma) were used as a positive control. EDTA was used to inhibit the enzyme activity as a negative control.
(§3) The approximate volume of reagents to use, the wavelengths to use to read absorbance, the incubation times were determined from a previous study that have carried out experiments with similar principles as described in Perez Alea M, Kitamura M, Martin G, Thomas V, Hitomi K, El Alaoui S., “Development of an isoenzyme-specific colorimetric assay for tissue transglutaminase 2 cross-linking activity”, Anal Biochem. 2009 Jun. 15; 389(2):150-6, Epub 2009 March 24. All reagents used and protein coated plates were part of the kit. Biotin cadaverine was reconstituted with 6 ml of deionized water and 90 μl was added into each well of the 96 well plate that comes coated with CBZ-GLN-GLY. The rest of the steps were followed as in the manufacturer's instructions and finally absorbance was read at 450 nm using a microplate reader (TECAN, Austria). All incubations were performed with gentle shaking on a laboratory orbital shaker.
(§4) The TG-2 colorimetric assay serves as a high throughput and quantitative assay to assess transamidase activity. […] In vivo studies with these drugs were also conducted to determine the effect on myopia development (see FIGS. 14 and 15).

Assay [2] deals with mouse eyes treated with −15D spectacle lens. Put plainly: spectacle lens-induced myopia in mice, axial length and refractive error. Particulars: lens with 0.1% drug; for axial length: 2 weeks and 4 weeks, vs lens treated eyes; for refractive error: infrared photorefractor. In kind it is in vivo. On the procedure: Topical applications were administered to both eyes at the same time each day (approximately 9:00 AM) commencing on the 12th day (initiation of spectacle lens treatment). A compatible drug level was determined prior to the in vivo use in a tissue culture study with mouse scleral fibroblasts. […] This treatment schedule continued for four weeks starting on post-natal day 12 continued until post-natal day 42. All measurements were taken at post-natal day 42, the equivalent of 4 weeks of spectacle lens wear.
Each eye was refracted every week to measure the refractive error using automated infrared photorefraction as described in Barathi, V. A., Beuerman, R. W., Schaeffel, F., 2009a, “Effects of unilateral topical atropine on binocular pupil responses and eye growth in mice”, Vision Res 49, 383-387. By using Optical Low Coherence Interferometry (OLCI, AC Master, Carl-Zeiss), the axial length of the eye was measured in-vivo as described in Yin G C, Gentle A, McBrien N A, “Muscarinic antagonist control of myopia: a molecular search for the M1 receptor in chick”, Mol. Vis. 2004; 13(10):787-93 and Barathi, V. A., Boopathi, V. G., Yap, E. P., Beuerman, R. W., 2008, “Two models of experimental myopia in the mouse”, Vision Res 48, 904-916. […] Differences of refractive power and axial length between eyes were calculated. Independent t-tests were used to compare experimental and control eyes in wild type and TGM2-deleted or M1-M5 mutant mice.
Right eyes were experimental and left eyes served as contra-lateral control. In vivo axial length was measured at 2 weeks and 4 weeks after treatment. […] Automated infrared photorefractor was used to measure the refractive error measurements.

For assay [3], the system named is TG-2. Put plainly: TG-2 colorimetric microassay (transamidase activity) in lysate of treated human scleral fibroblasts. Format: cell-based. Particulars: for transamidase activity of endogenous cellular TG-2: human scleral fibroblasts, 0.1, 1, 10 and 100 μM for 5 days, concentration-dependent. On the procedure:
as §1, §2, §3, §4

For assay [4], the system named is TG-2. Put plainly: Western blot of TG proteins in mouse scleral fibroblasts after muscarinic agents. In kind it is cell-based. Particulars: very low concentrations. As to the method: (§5) All cells used in examples described herein were between passages 2-4. Passaged cells were plated at a concentration of 2×10^5/mL into 6 well plates containing DMEM with 10% FBS. The cells were seen to attach to the bottom of the culture wells after 4 hours. Old media was removed from wells and 1 mL of drug was added with fresh full medium and incubated at 37° C. Fresh drugs were replaced daily consecutively for the next 5 days to avoid oxidation. The drugs/media was removed and wells were washed twice with 1×PBS. 200 μl of RIPA lysis buffer was added per well and incubated for 5 minutes and cells were scrapped into an eppendorf tube. The cells were stored at −20° C. until sonication. The cells were sonicated on ice thrice at 20% output power for 5 seconds each time and rested 1 minute in between each turn. Cell debris was spun down at 12000 rpm for 20 minutes. The supernatant was poured into a new eppendorf tube and cell concentrations were determined using the Dc Protein assay Kit (Bio-Rad, MA). Passaged cells were plated at a concentration of 1×10^5 into 6 well plates containing DMEM with 10% FBS. The cells were seen to attach to the bottom of the culture wells after 4 hours. Freshly prepared muscarinic agents' at base line, 0.1, 1, 10 and 100 μM concentrations were added for 5 days (Table 2). The culture medium was removed and fresh medium containing the same muscarinic drug added every day to avoid drug changes such as atropine oxidation. Cell lysate was collected for relative quantitative (q) PCR and protein analysis at day 5.
(§6) The cells were lysed by sonification in 1×RIPA lysis buffer (santa cruz biotechnology, Sc-24948) with 10 μl PMSF solution, 10 μl sodium orthovanadate solution and 20 μl protease inhibitor cocktail solution. After centrifugation at 20,000×g at 4° C. for 20 minutes, and the supernatant collected. The protein content in the supernatants was measured using the DC Protein Assay kit (Bio-Rad, MA) following the manufacturer's instructions. Samples were stored at −80° C. until assayed.
(§7) The mouse and human scleral fibroblasts were treated with atropine or carbachol at 0.01, 0.1, 1, 5 and 10 μM concentrations for 5 days. Following 5 days of treatment, the total cellular protein was extracted from these cells and TG proteins detected via Western blot analysis.
Human and, mouse scleral fibroblast proteins in the supernatant were separated by SDS-PAGE, transferred to nitrocellulose membranes, blocked in 5% BSA in TBST (10 mM Tris-HCl [pH 8.0], 150 mM NaCl, and […] Tween-20) for 2 hours at room temperature, and incubated with the same anti-TG-2 antibody described herein at a dilution of 1:1000 and anti β-tubulin antibodies used as a positive control, for 1 hour at room temperature. The membranes were washed 3 times in TBST and incubated with HRP-conjugated secondary antibody (Chemicon International) at a dilution of 1:2500 for 1 hour at room temperature. Immunoreactive bands were visualized using the enhanced chemiluminescence method (GE Healthcare, Buckinghamshire, UK). The membrane was wrapped in plastic and placed against an X-ray film to expose for an appropriate length of time (30 seconds-5 minutes).
(In general: A western blot detects proteins with antibodies after separation by electrophoresis.)

Assay [5] relates to TG-2. Put plainly: Western blot of TG proteins in human scleral fibroblasts after muscarinic agents. Particulars: very low concentrations. Format: cell-based. On the procedure: as §5, §6, §7
Human and, mouse scleral fibroblast proteins in the supernatant were separated by SDS-PAGE, transferred to nitrocellulose membranes, blocked in 5% BSA in TBST (10 mM Tris-HCl [pH 8.0], 150 mM NaCl, and […] Tween-20) for 2 hours at room temperature, and incubated with the same anti-TG-2 antibody described herein at a dilution of 1:1000 and anti β-tubulin antibodies used as a positive control, for 1 hour at room temperature. […]

For the molecule `C[N+]1(C)CCC(OC(=O)C(c2ccccc2)c2ccccc2)CC1.[I-]` [4-DAMP, 1,1-Dimethyl-4-diphenylacetoxypiperidinium iodide], the “transamidase activity of endogenous cellular TG-2” value in the assay on TG-2 [1] and with TG-2 [3] was “reduced” throughout. Further, the axial length entry in assay [2] is listed as “significantly reduced”. Moreover, in assay [2], the refractive error entry was “shifted from myopic to hyperoic”. Moreover, the “TG-2 protein level (reduction)” value with TG-2 [4] and in the assay with TG-2 [5] was “significant” each time.
Consider `NC(=O)C(c1ccccc1)(c1ccccc1)[C@@H]1CCN(CCc2ccc3c(c2)CCO3)C1` [darifenacin], for which the “transamidase activity of endogenous cellular TG-2” value in the assay with TG-2 [1] and in the assay with TG-2 [3] was “reduced” each time. Also, the “TG-2 activity, strongest reduction among the antagonists” value with TG-2 [1] (mouse scleral fibroblasts, low concentrations) is listed as “most significantly reduced”; in the assay on TG-2 [3] (human scleral fibroblasts, all concentrations), “most significantly reduced”; in the assay on TG-2 [3] (human scleral fibroblasts, low concentrations) it was “most significantly reduced”. The axial length entry in assay [2] is “significantly reduced”. For the same molecule, in assay [2], the refractive error result was “shifted from myopic to hyperoic”. The “TG-2 activity as compared to atropine” value in the assay on TG-2 [3] (human scleral fibroblasts, himbacine 0.1, 1, 10 & 100 μM, darifenacin 0.1, 1 & 10 μM) is reported as “more significantly reduced”. In addition, the “TG-2 protein level (reduction)” value in the assay with TG-2 [4] and with TG-2 [5] was “significant” throughout.
